Measurements: patent US5696276A, “Process for preparing 5,8-dihydroxynaphthoquinone derivatives, novel 5,8-dihydroxynaphthoquinone derivatives and their use as anticancer agent” (Kuhnil Pharmaceutical Co., Ltd., priority 1993, dated 1997)
Values after ≈ are worked out from the molar mass of the structure shown. Where two headings read alike, the source gives them in different places.

What was measured:
L1210 cells = experiment: Cytotoxic activity against L1210 cells; type: cell-based; details: Mus musculus, read-out: ED50, cytotoxic activity against L1210
Outline: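 Log-phase L1210 cells (5×10^4 cells/ml) in Fisher medium exposed 48 h at 37 °C in CO2 to three dilutions of sample dissolved in ethanol or DMSO. Cells counted by haemacytometer; growth relative to control; ED50 (μg/ml) from linear regression of growth % on log concentration.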

S-180 sarcoma cells = experiment: Animal experiment using Sarcoma S-180 cells (survival of mouse); type: in vivo, male ICR mouse; details: for responders at 15 µmol/kg / response vs control in vivo at 15 µmol/kg: daily dose 15 μmole (mg/kg/day given per compound)
Outline: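 Male ICR mice (20 to 25 g) received intraperitoneal transplants of 0.1 ml S-180 cell suspension (10^7 cells/ml), prepared from ascites by washing in cold physiological saline. After 24 hours, groups of 8 to 9 mice received 7 to 8 ip injections of sample in dimethylsulfoxide diluted with saline. Controls got 2% dimethylsulfoxide-saline. Survival (T/C, %) was scored against control death.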

HL-60 cells = experiment: Cytotoxic activity against HL-60 cells; type: cell-based; details: Homo sapiens, read-out: ED50, cytotoxic activity against HL-60
Description: As in the test for the cytotoxic activity against L1210 cells, the test samples were dissoved in ethanol or dimethylsulfoxide in a certain concentration. 0.1 ml of the sample solution was mixed with 0.9 ml of a fresh medium to prepare the dilutions. To each two test tubes having a screw cap were added 100, 50, 25 μl, respectively, of the sample dilutions by means of a micropipet. To each test tube for the test group and the control group (2√n: n=number of the samples) was added 5 ml of the dilutions of HL-60 cells and K-562 cells which were cultured and activated before 24 hours from the beginning of experiment and then diluted in a concentration of 1×10^5 cells/mi. All test tubes were cultured for 48 hours in a CO2 incubator at 37° C. and then the number of cells was counted using a haemacytometer.
The ED50 value is defined as a concentration (μg/ml) of the sample which inhibits the growth of cancer cells by 50% of the control group and determined according to a method described in NIC's mannual (NIC=National Cancer Institue, U.S.A.). The growth rate Y(%) of cells in the presence of the test sample in each concentration was calculated according to the followign equation: […]
In the above equation, T means the average cell number per ml in the test group after incubation for 48 hours in the presence of the test samples in each concentration, C means the average cell number per ml in the control group after incubation for 48 hours, and Co means the average cell number per ml in the control group at the beginning of incubation. The Y(%) value at each concentration and log10 value of each concentration were obtained and the regression curve was constructed according to the following equation from those obtained values. In this case, when all the Y(%) value obtained at each concentration is greater than 55% or lower than 45%, the experiment was repeatedly conducted.
To construct the regression curve Y=A+BX the values A and B were obtained using the following equation. [formula]
In the above, the value N is the number of selected points which is greater than 2 and lower than, or identical with, the number of cencentration of the test sample, Xi is log(concentration) i, and Yi is the growth ratio at (concentration)i. The value of ED50 was obtained for those obtained slope and intercept.

A549 cancer cells = experiment: Cytotoxic activity against A549 cancer cells (sulforhodamin B method); type: cell-based; details: Homo sapiens, read-out: ED50, cytotoxic activity against A549
Outline: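 Cells seeded at 8×10^4 per well, attached 24 h, then exposed 48 h to six log-spaced concentrations in triplicate. TCA-fixed, SRB-stained, OD read at 520 nm; growth inhibition computed relative to time-zero and untreated counts, IC50 from regression.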

[1] = ip, 1200 h, S-180 ICR mouse, intraperitoneal, 7 to 8 injections, read-out: Number of mouse survived for 50 days (converted)
[2] = ip, S-180 ICR mouse, intraperitoneal, 7 to 8 injections, read-out: T/C
[3] = A549 cells, SRB method, 48 hours
[4] = ip, 1200 h, S-180 ICR mouse, intraperitoneal, daily dose 10 μmole (mg/kg/day given per compound), 7 to 8 injections, read-out: Number of mouse survived for 50 days (converted)
[5] = ip, S-180 ICR mouse, intraperitoneal, daily dose 10 μmole (mg/kg/day given per compound), 7 to 8 injections, read-out: T/C
[6] = Mus musculus, S-180, ip, 1200 h, read-out: Number of mouse survived for 50 days
[7] = Mus musculus, S-180, ip, read-out: T/C

| SMILES | IC50 (L1210 cells; L1210 cells, 48 hours, 37° C.) [µg/mL] | responders at 15 µmol/kg (S-180 sarcoma cells; [1]) [%] | response vs control in vivo at 15 µmol/kg (S-180 sarcoma cells; [2]) [%] | IC50 (HL-60 cells; HL-60 cells, 48 hours, 37° C.) [µg/mL] | IC50 (A549 cancer cells; [3]) [µg/mL] | responders at 10 µmol/kg (S-180 sarcoma cells; [4]) [%] | response vs control in vivo at 10 µmol/kg (S-180 sarcoma cells; [5]) [%] | IC50 (L1210 cells; L1210, 48 h) [µg/mL] | responders at 5 µmol/kg (S-180 sarcoma cells; [6]) [%] | response vs control in vivo at 5 µmol/kg (S-180 sarcoma cells; [7]) [%] | IC50 (HL-60 cells; HL-60, 48 h) [µg/mL] | IC50 (A549 cancer cells; A549, 48 h) [µg/mL] | responders at 10 µmol/kg (S-180 sarcoma cells; [6]) [%] | response vs control in vivo at 10 µmol/kg (S-180 sarcoma cells; [7]) [%] |
| --- | --- | --- | --- | --- | --- | --- | --- | --- | --- | --- | --- | --- | --- | --- |
| CC(C)=CCC(OC(=O)/C=C(C)/C=C/C=C(C)/C=C/C1=C(C)CCCC1(C)C)C1=CC(=O)c2c(O)ccc(O)c2C1=O (stereo not drawn) [2-[1-trans-retinoyloxy)-4-methyl-3-pentenyl]-5,8-dihydroxy-1,4-naphthoquinone] | 3.1 (≈ 5.43 µM) | 0 | 107 | 4.3 (≈ 7.53 µM) | > 20 |  |  |  |  |  |  |  |  |  |
| CCCCCCCCCCCC(=O)OC(CC=C(C)C)C1=CC(=O)c2c(O)ccc(O)c2C1=O (stereo not drawn) | 0.7 (≈ 1.49 µM) | 0 | 110 | 1 (≈ 2.12 µM) | > 20 |  |  |  |  |  |  |  |  |  |
| CC(C)=CCC(OC(=O)Cc1ccccc1)C1=CC(=O)c2c(O)ccc(O)c2C1=O (stereo not drawn) [2-(1-phenylacetyloxy-4-methyl-3-pentenyl)-5,8-dihydroxy-1,4-naphthoquinone] | 0.1 (≈ 0.246 µM) |  |  | 0.4 (≈ 0.984 µM) | 1.1 (≈ 2.71 µM) | 0 | 183 |  |  |  |  |  |  |  |
| C=CCCCCCCCCC(=O)OC(CC=C(C)C)C1=CC(=O)c2c(O)ccc(O)c2C1=O (stereo not drawn) [2-(1-undecylenoyloxy-4-methyl-3-pentenyl)-5,8-dihydroxy-1,4-naphthoquinone] | 0.01 (≈ 0.022 µM) | 0 | 110 | 0.3 (≈ 0.66 µM) | 6.7 (≈ 14.7 µM) |  |  |  |  |  |  |  |  |  |
| CCCCCCCCCCCCCCCCCC(=O)OC(CC=C(C)C)C1=CC(=O)c2c(O)ccc(O)c2C1=O (stereo not drawn) | 1.1 (≈ 1.98 µM) | 0 | 110 | 10 (≈ 18 µM) | > 20 |  |  |  |  |  |  |  |  |  |
| C=CCCCCC(=O)OC(CC=C(C)C)C1=CC(=O)c2c(O)ccc(O)c2C1=O (stereo not drawn) [2-[1-(6-heptenoyl)oxy-4-methyl-3-pentenyl]-5,8-dihydroxy-1,4-naphthoquinone] | 0.2 (≈ 0.502 µM) |  |  | 0.5 (≈ 1.25 µM) | 4.2 (≈ 10.5 µM) | 12.5 | 192 |  |  |  |  |  |  |  |
| CCCCCC=CCC=CCCCCCCCC(=O)OC(CC=C(C)C)C1=CC(=O)c2c(O)ccc(O)c2C1=O (stereo not drawn) [2-[1-(9,12-octadecadinoyloxy-4-methyl-3-pentenyl]-5,8-dihydroxy-1,4-naphthoquinone] | 5 (≈ 9.08 µM) | 0 | 100 | 12.5 (≈ 22.7 µM) | > 20 |  |  |  |  |  |  |  |  |  |
| CC/C=C/CC(=O)OC(CC=C(C)C)C1=CC(=O)c2c(O)ccc(O)c2C1=O (stereo not drawn) [2-[1-trans-(3-hexenoyl)oxy-4-methyl-3-pentenyl]-5,8-dihydroxy-1,4-naphthoquinone] | 0.3 (≈ 0.78 µM) |  |  | 0.9 (≈ 2.34 µM) | 3.3 (≈ 8.58 µM) | 25 | 200 |  |  |  |  |  |  |  |
| CCCCCCCC(=O)OC(CC=C(C)C)C1=CC(=O)c2c(O)ccc(O)c2C1=O (stereo not drawn) [2-(1-n-octanoyloxy-4-methyl-3-pentenyl)-5,8-dihydroxy-1,4-naphthoquinone] | 0.2 (≈ 0.483 µM) | 22.2 | 235 | 0.7 (≈ 1.69 µM) | 4.3 (≈ 10.4 µM) |  |  |  |  |  |  |  |  |  |
| CCCCCCCCCCCCCCCC(=O)OC(CC=C(C)C)C1=CC(=O)c2c(O)ccc(O)c2C1=O (stereo not drawn) [2-(1-palmityloxy-4-methyl-3-pentenyl)-5,8-dihydroxy-1,4-naphthoquinone] | 2.1 (≈ 3.99 µM) | 0 | 109 | 3 (≈ 5.7 µM) | > 20 |  |  |  |  |  |  |  |  |  |
| CC(C)=CCC(OC(=O)CCl)C1=CC(=O)c2c(O)ccc(O)c2C1=O (stereo not drawn) [2-(1-monochloroacetyloxy-4-methyl-3-pentenyl)-5,8-dihydroxy-1,4-naphthoquinone] | 0.12 (≈ 0.329 µM) |  |  | 0.3 (≈ 0.822 µM) | 4 (≈ 11 µM) | 0 | 102 |  |  |  |  |  |  |  |
| C=CCC/C=C/C(=O)OC(CC=C(C)C)C1=CC(=O)c2c(O)ccc(O)c2C1=O (stereo not drawn) [2-[1-(trans-2,6-heptadienoyloxy)-4-methyl-3-pentenyl]-5,8-dihydroxy-1,4-naphthoquinone] | 1.3 (≈ 3.28 µM) |  |  | 0.9 (≈ 2.27 µM) | 3.8 (≈ 9.59 µM) | 12.5 | 180 |  |  |  |  |  |  |  |
| CCC=CCC=CCC=CCCCCCCCC(=O)OC(CC=C(C)C)C1=CC(=O)c2c(O)ccc(O)c2C1=O (stereo not drawn) [2-(1-linolenyloxy-4-methyl-3-pentenyl)-5,8-dihydroxy-1,4-naphthoquinone] | 1.5 (≈ 2.73 µM) | 0 | 125 | 4.8 (≈ 8.75 µM) | > 20 |  |  |  |  |  |  |  |  |  |
| CC(C)=CCC(OC(=O)C(C)C)C1=CC(=O)c2c(O)ccc(O)c2C1=O (stereo not drawn) [2-(1-isobutanoyloxy-4-methyl-3-pentenyl)-5,8-dihydroxy-1,4-naphthoquinone] | 0.003 (≈ 0.00837 µM) |  |  | 0.2 (≈ 0.558 µM) | 1.9 (≈ 5.3 µM) | 12.5 | 185 |  |  |  |  |  |  |  |
| CCC(=O)OC(CC=C(C)C)C1=CC(=O)c2c(O)ccc(O)c2C1=O (stereo not drawn) [2-(1-n-propionyloxy-4-methyl-3-pentenyl)-5,8-dihydroxy-1,4-naphthoquinone] |  |  |  |  |  |  |  | 0.03 (≈ 0.0871 µM) | 0 | 100 | 0.04 (≈ 0.116 µM) | 1.9 (≈ 5.52 µM) |  |  |
| CC=CC=CC(=O)OC(CC=C(C)C)C1=CC(=O)c2c(O)ccc(O)c2C1=O (stereo not drawn) [2-[1-(2,4-hexadienoyloxy)-4-methyl-3-pentenyl]-5,8-dihydroxy-1,4-naphthoquinone] | 0.5 (≈ 1.31 µM) |  |  | 0.6 (≈ 1.57 µM) | 0.7 (≈ 1.83 µM) | 25 | 185 |  |  |  |  |  |  |  |
| CCC/C=C/C(=O)OC(CC=C(C)C)C1=CC(=O)c2c(O)ccc(O)c2C1=O (stereo not drawn) [2-[1-trans-(2-hexenoyl)oxy-4-methyl-3-pentenyl]-5,8-dihydroxy-1,4-naphthoquinone] | 0.5 (≈ 1.3 µM) |  |  | 1 (≈ 2.6 µM) | 1.6 (≈ 4.16 µM) | 12.5 | 160 |  |  |  |  |  |  |  |
| CC(C)=CCC(OC(=O)C=C(C)C=CC=C(C)C=CC1=C(C)CCCC1(C)C)C1=CC(=O)c2c(O)ccc(O)c2C1=O (stereo not drawn) [2-[1-(cis-retinoyl)oxy-4-methyl-3-pentenyl]-5,8-dihydroxy-1,4-naphthoquinone] | 7.1 (≈ 12.4 µM) | 0 | 125 | 6.6 (≈ 11.6 µM) | > 20 |  |  |  |  |  |  |  |  |  |
| CC(C)=CCC(OC(=O)c1ccccc1)C1=CC(=O)c2c(O)ccc(O)c2C1=O (stereo not drawn) [2-(1-benzoyloxy-4-methyl-3-pentenyl)-5,8-dihydroxy-1,4-naphthoquinone] | 0.1 (≈ 0.255 µM) |  |  | 0.1 (≈ 0.255 µM) | 2.1 (≈ 5.35 µM) | 0 | 135 |  |  |  |  |  |  |  |
| CC(C)=CCC(OC(=O)C=C(C)C)C1=CC(=O)c2c(O)ccc(O)c2C1=O (stereo not drawn) [2-[1-(3,3-dimethyl)acryloxy-4-methyl-3-pentenyl]-5,8-dihydroxy-1,4-naphthoquinone] | < 0.01 |  |  | 0.05 (≈ 0.135 µM) | 1.1 (≈ 2.97 µM) |  |  |  |  |  |  |  | 25 | 179 |
| C=CCCC(=O)OC(CC=C(C)C)C1=CC(=O)c2c(O)ccc(O)c2C1=O (stereo not drawn) [2-[1-(4-pentenoyl)oxy-4-methyl-3-pentenyl]-5,8-dihydroxy-1,4-naphthoquinone] | 0.02 (≈ 0.054 µM) |  |  | 0.5 (≈ 1.35 µM) | 1 (≈ 2.7 µM) | 14.3 | 180 |  |  |  |  |  |  |  |
